Experimental data: ChEMBL document CHEMBL5120812, “Cytotoxic Nitrobenzoyl Sesquiterpenoids from an Antarctica Sponge-Derived Aspergillus insulicola” (J Nat Prod, 2022)

Assays:
Assay type in all cases: functional, cell-based
ASPC1 = test: Cytotoxicity against human ASPC1 cells assessed as inhibition of cell growth incubated for 72 hrs by SRB assay; details: ASPC1, 72 h
BXPC-3 = test: Cytotoxicity against human BXPC-3 cells assessed as inhibition of cell growth incubated for 72 hrs by SRB assay; details: BXPC-3, 72 h
PANC-1 = test: Cytotoxicity against human PANC-1 cells assessed as inhibition of cell growth incubated for 72 hrs by SRB assay; details: PANC-1, 72 h
MDA-MB-231 = test: Cytotoxicity against human MDA-MB-231 cells assessed as inhibition of cell growth incubated for 72 hrs by SRB assay; details: MDA-MB-231, 72 h

Nc1ccn([C@@H]2O[C@H](CO)[C@@H](O)C2(F)F)c(=O)n1 [GEMCITABINE]
IC50 (ASPC1): 7.5 µM | IC50 (BXPC-3): 0.04 µM | IC50 (PANC-1): 8.3 µM

C=C(CCCCCCCC(=O)OC[C@@]1(C)CCC[C@@]2(C)[C@H]1[C@H](OC(=O)c1ccc([N+](=O)[O-])cc1)C=C1C(=O)OC[C@@]12O)C(=O)O
IC50 (ASPC1): 2.7 µM | IC50 (PANC-1): 4.6 µM | IC50 (MDA-MB-231): 11.7 µM
